Measurements published in publication PMC4911231 (Journal of acquired immune deficiency syndromes (1999), 2016).
Values joined by “and” are separate entries in the source; they are usually repeats but may differ in a detail not shown here. Equal entries are not always repeated. Where two headings read alike, the source gives them in different places. Marks after values point to notes of the source that are not given here.

Tests used:
[1] = clinical; settings: female, human, in vivo
[2] = test system: HIV-1; assay: Maternal plasma HIV-1 RNA; type: in vivo, human; settings: rilpivirine with combination antiretrovirals
[3] = Maternal safety, pregnancy and infant outcomes; type: in vivo, human
[4] = Stability in stored plasma; type: physicochemical; settings: plasma stored at −70°C
[5] = test system: HIV-1; settings: cited from earlier work
[6] = cited from earlier work
[7] = cited from earlier work; remark: listed apart in the source
[8] = test system: cytochrome P450 3A4 (CYP 3A4); settings: cited from earlier work
[9] = cited from earlier work; remark: listed apart in the source
[10] = for AUC24 geometric mean (90% CI) ratio: within-subject; for Tmax: mode (range); for Vd/F: Vd/F (apparent volume of distribution); for AUC: one subject on concomitant darunavir/ritonavir
[11] = cited from earlier work; remark: listed apart in the source
[12] = 25 mg once daily, postpartum, median (range)
[13] = 25 mg once daily, second trimester, median (range)
[14] = 25 mg once daily, third trimester, median (range)
[15] = Second Trimester/Postpartum, n = 15
[16] = Second Trimester/Third Trimester, n = 15
[17] = Third Trimester/Postpartum, n = 28
[18] = female, human, plasma, oral, 25 mg, 25 mg once daily, second trimester, median (range)

Cc1cc(/C=C/C#N)cc(C)c1Nc1ccnc(Nc2ccc(C#N)cc2)n1 [Rilpivirine]
Kp [1]: 0.55 | Maternal plasma rilpivirine concentration at delivery, median (range) [1]: 103.3 (<10 to 273.4) ng/mL | Umbilical cord blood rilpivirine concentration at delivery, median (range) [1]: 53.78 (<10 to 219.7) ng/mL | HIV-1 RNA at 2nd trimester, median (range) [2]: < 40 (<20 – 2770) copies/mL | HIV-1 RNA at 3rd trimester, median (range) [2]: < 20 (<20 – 48700) copies/mL | HIV-1 RNA at Delivery, median (range) [2]: < 20 (<16 – 48700) copies/mL | Number of preterm deliveries ([3]; at 32, 35, and 36 weeks, N of 30): 3 (10%) | Gestational age at delivery, median (range) ([3]; in vivo): 38.9 (32.3 – 41.4) weeks | Infant Birth weight, median (range) ([3]; in vivo): 3095 (1570 – 4570) g | Tolerability ([3]; pregnant and postpartum women, 25 mg once daily): well tolerated | Stability in plasma [4]: 2 years | median EC50 [5]: 0.27 ng/mL | median EC90 [5]: 0.66 ng/mL | protein binding-adjusted EC50 [5]: 5.0 ng/mL | Bound to protein [6]: 99.7% | Cord blood to maternal plasma ratio ([7]; one person): 0.74 | Reduction in exposure during pregnancy compared to postpartum ([7]; two women, one value each): 30% and 43% | Substrate of cytochrome P450 3A4 [8]: substrate | Coefficient of variation (CV) for AUC ([9]; human, in vivo): 38% | 10th percentile rilpivirine AUC ([9]; non-pregnant adults): 880 ng·h/mL | C0 (pre-dose concentration) [10, 12]: 69 (<10 – 285) ng/mL | C24 (24 hour post-dose concentration) [10, 12]: 81 (<10 – 299) ng/mL | Cmin (minimum observed concentration) [10, 12]: 58 (<10 – 200) ng/mL | C0 (pre-dose concentration) [10, 13]: 98(31 – 216) ^‡ ng/mL | C24 (24 hour post-dose concentration) [10, 13]: 63(37 – 225) ^* ng/mL | Cmin (minimum observed concentration) [10, 13]: 65(29 – 178) ng/mL | C0 (pre-dose concentration) [10, 14]: 56(<10 – 210) ng/mL | C24 (24 hour post-dose concentration) [10, 14]: 56(<10 – 181) ^† ng/mL | Cmin (minimum observed concentration) [10, 14]: 51(<10 – 136) ng/mL | Coefficient of variation (CV) for Cmax ([10]; 2nd trimester): 53% | Coefficient of variation (CV) for Cmin ([10]; 2nd trimester): 55% | Coefficient of variation (CV) for AUC ([10]; 2nd trimester, between-subject): 186% | Coefficient of variation (CV) for AUC ([10]; 3rd trimester): 194% | Coefficient of variation (CV) for Cmax ([10]; 3rd trimester): 212% | Coefficient of variation (CV) for Cmin ([10]; 3rd trimester): 154% | Minimum plasma concentration (Cmin), median (range) ([10]; 14 visits with detectable HIV-1 RNA): 30 (<10 – 93) ng/mL and 30 ng/mL | Minimum plasma concentration (Cmin), median (range) ([10]; 62 visits with undetectable HIV-1 RNA): 63 (15 – 199) ng/mL and 63 ng/mL | C0 geometric mean (90% CI) ratio [10, 15]: 0.91 (0.61 – 1.38) | C24 geometric mean (90% CI) ratio [10, 15]: 0.70 (0.55 – 0.90) | CL/F geometric mean (90% CI) ratio [10, 15]: 1.33 (1.04 – 1.70) | Cmax geometric mean (90% CI) ratio [10, 15]: 0.84 (0.69 – 1.02) | Cmin geometric mean (90% CI) ratio [10, 15]: 0.88 (0.63 – 1.21) | Vd/F geometric mean (90% CI) ratio [10, 15]: 1.50 (0.58 – 3.93) | AUC24 geometric mean (90% CI) ratio [10, 15]: 0.77 (0.61 – 0.96) | C0 geometric mean (90% CI) ratio [10, 16]: 1.30 (1.06 – 1.60) | C24 geometric mean (90% CI) ratio [10, 16]: 1.09 (0.95 – 1.26) | CL/F geometric mean (90% CI) ratio [10, 16]: 0.92 (0.81 – 1.05) | Cmax geometric mean (90% CI) ratio [10, 16]: 1.13 (0.96 – 1.34) | Cmin geometric mean (90% CI) ratio [10, 16]: 1.22(1.02 – 1.45) | Vd/F geometric mean (90% CI) ratio [10, 16]: 0.36(0.22 – 0.58) | AUC24 geometric mean (90% CI) ratio [10, 16]: 1.09 (0.96 – 1.23) | C0 geometric mean (90% CI) ratio [10, 17]: 0.94 (0.59 – 1.50) | C24 geometric mean (90% CI) ratio [10, 17]: 0.84 (0.57 – 1.23) | CL/F geometric mean (90% CI) ratio [10, 17]: 1.26 (0.97 – 1.64) | Cmax geometric mean (90% CI) ratio [10, 17]: 0.83 (0.68 – 1.01) | Cmin geometric mean (90% CI) ratio [10, 17]: 1.11 (0.70 – 1.74) | Vd/F geometric mean (90% CI) ratio [10, 17]: 1.42 (0.68 – 2.97) | AUC24 geometric mean (90% CI) ratio [10, 17]: 0.80 (0.62 – 1.03) | concentration at 24 h ([10]; female, human, plasma, oral, 25 mg, C24 (24 hour post-dose concentration), 25 mg once daily, second trimester, median (range)): 63 ng/mL | Cmax ([10]; female, human, plasma, oral, 25 mg, 25 mg once daily, postpartum, median (range)): 134 ng/mL | Cmax [10, 18]: 145 ng/mL | Tmax ([10]; female, human, plasma, oral, 25 mg, 25 mg once daily, postpartum): 4 h | Tmax ([10]; female, human, plasma, oral, 25 mg, 25 mg once daily, third trimester): 2 h | Vd/F [10, 18]: 750 L | Vd/F ([10]; female, human, plasma, oral, 25 mg, 25 mg once daily, third trimester, median (range)): 1210 L | AUC ([10]; human, plasma, oral, 25 mg, second trimester): 12400 ng·h/mL | AUC ([10]; human, plasma, oral, 25 mg, third trimester): 3600 ng·h/mL | Coefficient of variation (CV) for AUC ([10]; postpartum): 60% | Coefficient of variation (CV) for Cmax ([10]; postpartum): 58% | Coefficient of variation (CV) for Cmin ([10]; postpartum): 71% | Women below the AUC0–24 10th percentile target (880 ng*hr/mL) ([10]; postpartum, 3 of 28): 11% | Women with absorption lag (1 hour post-dose concentration less than pre-dose) ([10]; postpartum, 11 of 28): 39% | C24 lower vs. postpartum ([10]; second trimester): 30% | Reduction of AUC compared to postpartum ([10]; second trimester): 23% | Women below the AUC0–24 10th percentile target (880 ng*hr/mL) ([10]; second trimester, 1 of 15): 7% | Women with absorption lag (1 hour post-dose concentration less than pre-dose) ([10]; second trimester, 9 of 18): 50% | C24 lower vs. postpartum ([10]; third trimester): 16% | Reduction of drug exposure (AUC) compared to postpartum ([10]; third trimester): 20% | Women below the AUC0–24 10th percentile target (880 ng*hr/mL) ([10]; third trimester, 2 of 28): 7% | Women with absorption lag (1 hour post-dose concentration less than pre-dose) ([10]; third trimester, 13 of 30): 43%

COC(=O)N[C@H](C(=O)N[C@@H](Cc1ccccc1)[C@@H](O)CN(Cc1ccc(-c2ccccn2)cc1)NC(=O)[C@@H](NC(=O)OC)C(C)(C)C)C(C)(C)C [atazanavir]
AUC during pregnancy compared to postpartum ([11]; HIV protease inhibitors): significant decreases

CC(C)CN(C[C@@H](O)[C@H](Cc1ccccc1)NC(=O)O[C@H]1CO[C@H]2OCC[C@H]21)S(=O)(=O)c1ccc(N)cc1 [darunavir]
AUC during pregnancy compared to postpartum ([11]; HIV protease inhibitors): significant decreases

O=C1Nc2ccc(Cl)cc2[C@@](C#CC2CC2)(C(F)(F)F)O1 [efavirenz]
Clearance during pregnancy [11]: increased

Cc1cc(C#N)cc(C)c1Oc1nc(Nc2ccc(C#N)cc2)nc(N)c1Br [etravirine]
Exposure during pregnancy compared to postpartum [11]: increased

CC(C)CN(C[C@@H](OP(=O)(O)O)[C@H](Cc1ccccc1)NC(=O)O[C@H]1CCOC1)S(=O)(=O)c1ccc(N)cc1 [fosamprenavir]
AUC during pregnancy compared to postpartum ([11]; in vivo): significant decreases

CC(C)(C)NC(=O)[C@@H]1CN(Cc2cccnc2)CCN1C[C@@H](O)C[C@@H](Cc1ccccc1)C(=O)N[C@H]1c2ccccc2C[C@H]1O [indinavir]
AUC during pregnancy compared to postpartum ([11]; in vivo): significant decreases

Cc1cccc(C)c1OCC(=O)N[C@@H](Cc1ccccc1)[C@@H](O)C[C@H](Cc1ccccc1)NC(=O)[C@H](C(C)C)N1CCCNC1=O [lopinavir]
AUC during pregnancy compared to postpartum ([11]; in vivo): significant decreases

Cc1c(O)cccc1C(=O)N[C@@H](CSc1ccccc1)[C@H](O)CN1C[C@H]2CCCC[C@H]2C[C@H]1C(=O)NC(C)(C)C [nelfinavir]
AUC during pregnancy compared to postpartum ([11]; HIV protease inhibitors): significant decreases

Cc1ccnc2c1NC(=O)c1cccnc1N2C1CC1 [nevirapine]
AUC reduced during third trimester compared to postpartum ([11]; in vivo): 20% | Cmax reduced during third trimester compared to postpartum ([11]; in vivo): 20% | Cmin reduced during third trimester compared to postpartum ([11]; in vivo): 20%

CC(C)(C)NC(=O)[C@@H]1C[C@@H]2CCCC[C@@H]2CN1C[C@@H](O)[C@H](Cc1ccccc1)NC(=O)[C@H](CC(N)=O)NC(=O)c1ccc2ccccc2n1 [saquinavir]
AUC during pregnancy compared to postpartum ([11]; in vivo): significant decreases
